Test results as given in article PMC5838106, “Cathelicidin promotes inflammation by enabling binding of self-RNA to cell surface scavenger receptors” (Scientific Reports, 2018).

What was measured:
Assay type in all cases: cell-based, human
NHEKs = assay: Cytokine mRNA expression in NHEKs stimulated with cathelicidin peptide and dsRNA (quantitative real-time PCR); settings: for inhibition of the expression of inflammatory cytokines induced by LL37 and U1 RNA: MDC 200 μM, Pitstop-2 25 μM, dynasore 80 μM for 30 minutes
THP1 cells = assay: Cytokine expression in PMA-treated THP1 cells stimulated with cathelicidin peptide and U1 RNA; settings: PMA-treated THP1; MDC 200 μM, Pitstop-2 25 μM, dynasore 80 μM for 30 minutes, LL37 3 μM and U1 RNA 12.5 μg/mL overnight; n = 3
Description: Figure 1 Inflammatory activity of cathelicidin can be dissociated from antimicrobial function (a) Transcriptomic analysis by RNASeq of primary cultures of normal human epidermal keratinocytes (NHEKs) treated with LL37 (2.5 μM) with or without U1 RNA (2.5 μg/mL) for 24 hours. Shown are gene sets induced > 2 fold over vehicle, and after treatment with LL37, U1 RNA, or the combination of LL37 + U1 RNA. (b) Gene Ontology analysis of gene sets from (a). The number of genes related to each biological process is indicated in parentheses. (c) Amino acid sequence of synthetic cathelicidin peptides used in this study. (d) Antimicrobial assay of cathelicidin peptides against group A streptococcus (GAS). GAS were incubated with various concentrations of each peptide (0–25 μM) for 6 hours, then surviving colonies counted after plating on Todd Hewitt Broth gel. (e) IFN-β1 mRNA abundance and (f) IL-6 mRNA abundance in NHEKs after treatment with cathelicidin peptides (2.5 μM) for 10 minutes, then stimulated with U1 RNA (2.5 μg/mL) for a further 6 hours. (n = 3). (g) IFN-β1 mRNA abundance and (h) IL-6 mRNA abundance in […] (PMA)-treated THP1 cells after treatment with cathelicidin peptides (3 μM) for 10 minutes, then stimulated with U1 RNA (12.5 μg/mL) overnight. (n = 3). Data presented are from one representative experiment of at least two independent experiments. Error bars are SEM of three biological replicates. *P < 0.05, **P < 0.01, ***P < 0.001 by two-way ANOVA with Bonferroni’s post-hoc test. See also Fig. S1.
Primary neonatal human epidermal keratinocytes (NHEKs) was purchased from ThermoFisher Scientific. NHEKs were grown in serum free EpiLife medium supplemented with 0.06 mM CaCl2, EpiLife Defined growth supplements (EDGS) (ThermoFisher Scientific) and antibiotics, and passage 3–5 cells were used for experiment. Cells at 60–80% confluence were starved overnight without EDGS prior to treatment. THP1 was purchased from American Type Culture Collection (ATCC) (Manassas, VA). THP1 was cultured in RPMI-1640 (Sigma) supplemented with 10% Hyclone fetal calf serum (Thermofisher Scientific), and antibiotics, and passage 3–5 cells were used for experiment. Cells at 60–80% confluence were differentiated by Phorbol 12-myristate 13-acetate (PMA, Sigma) for 24 hours and then starved overnight without Hyclone fetal calf serum prior to treatment.
RNA was isolated from NHEKs using Purelink RNA isolation columns (ThermoFisher Scientific) according to the manufacturer’s instructions. RNA was quantified using a Nanodrop spectrophotometer (ThermoFisher Scientific), and up to 500 ng of RNA was reverse-transcribed using the iScript cDNA synthesis kit (Bio-Rad, Irvine, CA). Quantitative real-time PCR reactions were run on a CFX96 real-time detection system (Bio-Rad) using gene-specific primers and TaqMan probes (ThermoFisher Scientific). PCR primers and probes are shown on Table S2.

scavenger receptors = assay: Proximity ligation assay between U1 RNA and the indicated scavenger receptors; settings: NHEKs, 4 °C, 1 hour; Fig. 3d
Description: Figure 3 Cathelicidin enables dsRNA to associate with scavenger receptors. (a) Proximity ligation assay for SR-B1 and U1 RNA. NHEKs were cultured with various cathelicidin peptides (2.5 μM) for 10 minutes, then with biotinylated U1 RNA (2.5 μg/mL) at 4 °C for 1 hour before physical proximity of SR-B1 and U1 RNA was determined using a fluorescence-based PLA that produces a red fluorescent signal. Nuclei (blue) are counterstained with DAPI. Scale bar represents 10 μm. (b) Signal count of (a) in 5 visual fields. (c) Proximity ligation assay as in (a) but reaction is detecting proximity of LL37 and SR-A6. Scale bar represents 100 μm. (d) Signal count of proximity ligation assay performed as in (a), but between U1 RNA and the indicated scavenger receptors, each count is PLA complexes observed in 5 visual fields. (e) Skin sections from healthy subject (control), or lesional skin from a psoriasis patient (Psoriasis) were fixed and PLA performed for LL37 and SR-B1. […]
NHEKs seeded into 8 chamber slides (Thermo Fisher Scientific) were incubated with various combination of U1 RNA, poly(I:C), cathelicidin peptides, and fucoidan for 1 hour at 4 °C allowing binding, but not internalization. […] Fluorescent PLA signals were evaluated using fluorescence microscopy (described above). Signals are counted by Duolink ImageTool software version 1.0.1.2 (Sigma-aldrich).

[1] = LL37 2.5 μM and U1 RNA 2.5 μg/mL 6 hours, n = 3

Oc1ccc2ccccc2c1SSc1c(O)ccc2ccccc12 [IPA-3]
effect on IFN-β1 and IL-6 expression induced by LL37 and U1 RNA (NHEKs; IPA-3 2.8 nM for 30 minutes, LL37 2.5 μM and U1 RNA 2.5 μg/mL 6 hours, n = 3): did not inhibit

CN(C)c1cccc2c(S(=O)(=O)NCCCCCN)cccc12 [MDC, Monodansylcadaverine]
inhibition of the expression of inflammatory cytokines induced by LL37 and U1 RNA (NHEKs; [1]): significant inhibition | inhibition of the expression of inflammatory cytokines induced by LL37 and U1 RNA (THP1 cells): significant inhibition

O=C1NC(=NS(=O)(=O)c2cccc3ccccc23)S/C1=C\c1ccc(Br)cc1 [Pitstop-2^TM]
inhibition of the expression of inflammatory cytokines induced by LL37 and U1 RNA (NHEKs; [1]): significant inhibition | inhibition of the expression of inflammatory cytokines induced by LL37 and U1 RNA (THP1 cells): significant inhibition

O=C(N/N=C/c1ccc(O)c(O)c1)c1cc2ccccc2cc1O [dynasore]
inhibition of the expression of inflammatory cytokines induced by LL37 and U1 RNA (NHEKs; [1]): significant inhibition | inhibition of the expression of inflammatory cytokines induced by LL37 and U1 RNA (THP1 cells): significant inhibition

Fucoidan
effect on LL37-dependent binding of U1 RNA to scavenger receptors (PLA) (scavenger receptors): significantly diminished binding | inhibition of the capacity of LL37 to induce cytokines combined with U1 RNA (NHEKs; various concentrations of fucoidan, LL37 2.5 μM and U1 RNA 2.5 μg/mL 6 hours): potently inhibited | inhibition of the capacity of LL37 to induce cytokines combined with poly(I:C) (NHEKs; various concentrations of fucoidan, LL37 2.5 μM and poly(I:C) 0.3 μg/mL 6 hours): potently inhibited

pertussis toxin
effect on expression of IL-6 induced by LL37 and U1 RNA (NHEKs; pertussis toxin 0.5 μg/mL or WRW4 1 μM for 1 hour, then LL37 2.5 μM and U1 RNA 2.5 μg/mL 6 hours, n = 3): did not decrease
